# Reference: patent US12251382B2, “Substituted amino-pyrimidine compound for use in a method for treatment and prevention of multiple sclerosis” (Merck Patent GmbH, priority 2018, dated 2025)
# Entries after “also recorded” stand apart in the source; their conditions may differ.
# What was measured:
# [1] = Phase I Part 2: plasma pharmacokinetics Day 1 and Day 14 of once daily dosing; format: in vivo, human; details: for MRT: human, plasma, oral
# Procedure: To test dose proportionality, PK parameters were analyzed graphically as AUC/dose and Cmax/dose and via a power model (PK parameter=α*dose^β) approach with log-transformed PK parameters as the dependent variable and log-transformed dose as the independent variable.
# [2] = test system: human patients suffering from relapsing multiple sclerosis (RMS); assay: Phase II RMS study: qualified relapse assessment (ARR, relapse-free status); format: in vivo; details: for Qualified relapse rate, adjusted / Qualified relapses, number of relapses: 24 weeks; for Proportion relapse-free / Unadjusted ARR: Week 24
# Procedure: (§1) The assessing Investigator and central MRI reader were treatment blinded.
# Subjects were assessed for MS relapse at visits beginning at Week 4. Relapse was also assessed at any Unscheduled Visit for Neurological Worsening and Relapse Assessment. For subjects in the OLE Period, MS relapse was assessed at all visits. A qualifying relapse was defined as new, worsening or recurrent neurological symptoms attributed to MS that last for at least 24 hours without fever or infection, or adverse reaction to prescribed medication, preceded by a stable or improving neurological status of at least 30 days. The relapse must have been accompanied by new clinical signs (i.e., changes in the neurological examination or an increase in EDSS score).
# The protocol specified that all cases of potential relapse were to be objectively confirmed by the Investigator regardless of whether they were identified during a scheduled or unscheduled visit. Any assessments needed to confirm the relapse were to be performed, and details of the relapse were to be documented within the relevant section(s) of the eCRF.
# Additional Secondary Endpoints
# Analysis of secondary endpoints was based on the mITT analysis set. […] Descriptive statistics for ARR were calculated for each treatment group as the total number of qualified relapses divided by the number of subject-years of observation.
# Primary and secondary efficacy endpoints were analysed based on the modified intention-to-treat (mITT) analysis set, consisting of all randomized patients with at least one available baseline and one post-baseline MRI assessment. […] For each endpoint, rate ratio (RR; null-hypothesis RR=1.0) adjusted for baseline disease activity was reported together with associated 95% CI and p-value. The T2 lesion endpoint was analysed similarly. Dose-response relationships between evobrutinib treatment dose and primary and key secondary endpoints were assessed for linear and monotonic trend. The analysis of CFB in cube root of volume of T2 lesions at Week 24 was based on a mixed-effect model for repeated measures, with fixed effects for treatment, week of visit, and treatment-by-week interaction, random effect for subject, and adjustment for baseline cube root of lesion volume. CFB in SF-36 score at Week 24 was analysed similarly. Descriptive statistics were used to further describe the study outcomes.
# [3] = Phase II RMS study: safety (adverse events, laboratory) over 24 weeks; format: in vivo
# Procedure: as §1
# Safety profile of the IMP was assessed through the recording, reporting and analysis of baseline medical conditions; AEs; physical examination findings including vital signs, ECGs, and laboratory tests (including Ig and subclass concentration and B, NK, and T cell counts). Comprehensive assessment of any apparent toxicity experienced by each subject was performed from the time of giving informed consent and throughout the trial. The Investigator was to report any AEs, whether observed by the Investigator or reported by the subject.
# Adverse Event: An AE was any untoward medical occurrence in a subject or clinical investigation subject administered a pharmaceutical product, regardless of causal relationship with this treatment. An AE could therefore be any unfavorable and unintended sign (including an abnormal laboratory finding), symptom, or disease temporally associated with the use of a medicinal product, whether or not considered related to the medicinal product.
# The Investigator was required to grade the severity or toxicity of each AE. Investigators referenced the National Cancer Institute-Common Terminology Criteria for AEs (NCI-CTCAE), Version 4.03 (publication date: 14 Jun. 2010) a descriptive terminology provided in the Manual of Procedures that can be used for AE reporting.
# A general grading (severity/intensity; hereafter referred to as severity) scale was provided at the beginning of the above referenced document, and specific event grades were also provided. Only if a particular AE's severity was not specifically graded by the guidance document, then the Investigator was to use the general NCI-CTCAE definitions of Grade 1 through Grade 5 following his or her best medical judgment. The 5 general grades are: • Grade 1 or Mild • Grade 2 or Moderate • Grade 3 or Severe • Grade 4 or Life-threatening • Grade 5 or Death.
# Serious Adverse Events: An SAE is any untoward medical occurrence that at any dose: • Results in death. • Is life-threatening. (Note: The term “life-threatening” refers to an event in which the subject is at risk of death at the time of the event, not an event that hypothetically might have caused death if it was more severe) • Requires inpatient hospitalization or prolongs an existing hospitalization, except in the case of hospitalizations due to protocol-defined relapses. • Results in persistent or significant disability or incapacity. • Is a congenital anomaly or birth defect. • Is otherwise considered to be medically important.
# [4] = Clinical trial of relative bioavailability of tablet vs powder-in-capsule incl. food effect in healthy volunteers; format: in vivo, human; details: oral administration in proximity in time to food (fed vs fasted)
# B cells = details: in vitro and ex vivo; cited from earlier work
# [5] = test system: B- and T-cell-mediated EAE mouse models; details: cited from earlier work
# [6] = multiple-dose study Day 1, 25 mg, geometric mean
# [7] = multiple-dose study Day 1, 75 mg, geometric mean
# [8] = multiple-dose study Day 1, 200 mg, geometric mean
# [9] = multiple-dose study Day 14, 25 mg once daily, geometric mean
# [10] = multiple-dose study Day 14, 75 mg once daily, geometric mean
# [11] = multiple-dose study Day 14, 200 mg once daily, geometric mean
smiles,measurement,setting,value
"C=CC(=O)N1CCC(CNc2ncnc(N)c2-c2ccc(Oc3ccccc3)cc2)CC1 [Evobrutinib, 1-(4-(((6-amino-5-(4-phenoxyphenyl)pyrimidin-4-yl)amino)methyl)piperidin-1-yl)prop-2-en-1-one]",Dose proportionality of AUC and Cmax,"[1]; 25-500 mg single dose, 25-200 mg once daily multiple dose",demonstrated following multiple dosing of 25-200 mg; also recorded: dose-proportional over a 25-500 mg single-dose range and a 25-200 mg once daily multiple-dose range
same,Time dependency of PK,[1]; 14 days repeated daily dosing,no time dependency
same,MRT,"[1]; 25 mg, multiple-dose study Day 1, 25 mg, geometric mean",1.66 h
same,MRT,"[1]; 25 mg, multiple-dose study Day 14, 25 mg once daily, geometric mean",1.81 h
same,MRT,"[1]; 75 mg, multiple-dose study Day 1, 75 mg, geometric mean",1.67 h
same,MRT,"[1]; 75 mg, multiple-dose study Day 14, 75 mg once daily, geometric mean",1.79 h
same,MRT,"[1]; 200 mg, multiple-dose study Day 1, 200 mg, geometric mean",1.72 h
same,MRT,"[1]; 200 mg, multiple-dose study Day 14, 200 mg once daily, geometric mean",1.92 h
same,AUC0−∞,[1]; [6],123 ng·h/mL
same,Cmax,[1]; [6],99.7 ng/mL
same,T1/2,[1]; [6],1.70 h
same,AUC0−∞,[1]; [7],325 ng·h/mL
same,CL/F,[1]; [7],3850 mL/min
same,Cmax,[1]; [7],254 ng/mL
same,T1/2,[1]; [7],1.86 h
same,AUC0−∞,[1]; [8],1110 ng·h/mL
same,Cmax,[1]; [8],797 ng/mL
same,T1/2,[1]; [8],2.49 h
same,AUC0−24h,[1]; [9],126 ng·h/mL
same,Cmax,[1]; [9],80.4 ng/mL
same,T1/2,[1]; [9],1.59 h
same,AUC0−24h,[1]; [10],345 ng·h/mL
same,Cmax,[1]; [10],252 ng/mL
same,T1/2,[1]; [10],2.29 h
same,AUC0−24h,[1]; [11],"1,210 ng * h/mL"
same,Cmax,[1]; [11],782 ng/mL
same,T1/2,[1]; [11],3.62 h
same,Accumulation with multiple dosing,"[1]; once daily, 14 days",no accumulation with multiple dosing; also recorded: without accumulation after multiple dosing
same,t½ after multiple dosing,[1]; range across 25-200 mg once daily,1.6 to 3.6 h
same,"Qualified relapse rate, adjusted",[2]; 25 mg QD,0.47
same,"Qualified relapses, number of relapses",[2]; 25 mg QD,12 n
same,Proportion relapse-free,[2]; 25 mg QD,76.0%
same,Unadjusted ARR,[2]; 25 mg QD,0.52
same,Proportion relapse-free,"[2]; 25 mg QD, listed as evobrutinib",76%
same,"Qualified relapse rate, adjusted",[2]; 75 mg BID,0.07
same,"Qualified relapses, number of relapses",[2]; 75 mg BID,2 n
same,Proportion relapse-free,[2]; 75 mg BID,86.8%
same,Unadjusted ARR,[2]; 75 mg BID,0.08
same,Proportion relapse-free,"[2]; 75 mg BID, listed as evobrutinib",87%
same,"Qualified relapse rate, adjusted",[2]; 75 mg QD,0.10
same,"Qualified relapses, number of relapses",[2]; 75 mg QD,3 n
same,Proportion relapse-free,[2]; 75 mg QD,88.2%
same,Unadjusted ARR,[2]; 75 mg QD,0.13
same,Proportion relapse-free,"[2]; 75 mg QD, listed as evobrutinib",88%
same,Deaths or additional emerging safety signals,[3]; 24 weeks,no deaths or additional emerging safety signals
same,TEAEs of grade 4 or 5,"[3]; human, in vivo, 24 weeks",no TEAEs of grade 4 or 5
same,"Hematological abnormalities, such as lymphopenia",[3]; in vivo,"None of the three evobrutinib doses were associated with hematological abnormalities, such as lymphopenia"
same,Hy's Law cases among Grade 3 transaminase elevations,[3]; in vivo,no Hy's Law cases
same,Infection rates versus placebo,[3]; in vivo,lower than those with placebo
same,Effect of food on bioavailability,[4],significant increase in the bioavailability
same,B-cell activation and maturation,B cells,inhibits B-cell activation and maturation from naïve to antigen-activated B cells
same,"CNS inflammation, demyelination and disease severity (clinical scoring)",[5],potential to reduce CNS inflammation and demyelination and ameliorate disease severity
